Test results: ChEMBL document CHEMBL1152560, “Substituted 2-arylbenzothiazoles as kinase inhibitors: hit-to-lead optimization” (Bioorg Med Chem, 2009)

Legend:
[1] = molecular target: Mitogen-activated protein kinase 14 (Homo sapiens) (UniProt Q16539); assay: Residual activity of p38alpha at 1 uM by microplate scintillation counting
[2] = molecular target: Tyrosine-protein kinase HCK (Homo sapiens) (UniProt P08631); assay: Residual activity of HCK at 0.1 uM by microplate scintillation counting
[3] = molecular target: T1, cGMP-dependent protein kinase 2 (Homo sapiens) (UniProt Q13237); assay: Residual activity of PRKG2 at 1 uM by microplate scintillation counting
T1 sequence (whole entry): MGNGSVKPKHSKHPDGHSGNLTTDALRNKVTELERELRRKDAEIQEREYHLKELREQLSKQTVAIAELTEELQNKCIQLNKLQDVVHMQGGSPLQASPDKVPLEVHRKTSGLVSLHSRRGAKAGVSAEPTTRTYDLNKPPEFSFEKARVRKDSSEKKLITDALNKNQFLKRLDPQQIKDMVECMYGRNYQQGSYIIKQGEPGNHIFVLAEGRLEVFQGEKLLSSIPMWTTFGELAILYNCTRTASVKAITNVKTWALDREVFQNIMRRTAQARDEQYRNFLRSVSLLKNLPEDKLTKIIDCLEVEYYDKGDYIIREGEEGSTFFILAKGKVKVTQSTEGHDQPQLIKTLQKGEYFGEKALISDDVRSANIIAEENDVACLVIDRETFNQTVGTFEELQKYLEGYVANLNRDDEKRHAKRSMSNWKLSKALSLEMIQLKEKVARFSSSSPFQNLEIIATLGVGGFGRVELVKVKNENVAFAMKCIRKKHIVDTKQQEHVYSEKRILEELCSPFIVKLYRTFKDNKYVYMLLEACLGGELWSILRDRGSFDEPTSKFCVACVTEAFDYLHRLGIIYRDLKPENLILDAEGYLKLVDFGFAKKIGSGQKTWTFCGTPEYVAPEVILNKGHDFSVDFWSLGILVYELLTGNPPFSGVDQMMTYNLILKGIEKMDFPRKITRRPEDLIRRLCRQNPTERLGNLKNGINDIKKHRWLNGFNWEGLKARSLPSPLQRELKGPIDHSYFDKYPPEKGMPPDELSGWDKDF

[4] = molecular target: T2, Dual specificity protein kinase TTK (Homo sapiens) (UniProt P33981); assay: Residual activity of TTK at 1 uM by microplate scintillation counting
T2 sequence (whole entry): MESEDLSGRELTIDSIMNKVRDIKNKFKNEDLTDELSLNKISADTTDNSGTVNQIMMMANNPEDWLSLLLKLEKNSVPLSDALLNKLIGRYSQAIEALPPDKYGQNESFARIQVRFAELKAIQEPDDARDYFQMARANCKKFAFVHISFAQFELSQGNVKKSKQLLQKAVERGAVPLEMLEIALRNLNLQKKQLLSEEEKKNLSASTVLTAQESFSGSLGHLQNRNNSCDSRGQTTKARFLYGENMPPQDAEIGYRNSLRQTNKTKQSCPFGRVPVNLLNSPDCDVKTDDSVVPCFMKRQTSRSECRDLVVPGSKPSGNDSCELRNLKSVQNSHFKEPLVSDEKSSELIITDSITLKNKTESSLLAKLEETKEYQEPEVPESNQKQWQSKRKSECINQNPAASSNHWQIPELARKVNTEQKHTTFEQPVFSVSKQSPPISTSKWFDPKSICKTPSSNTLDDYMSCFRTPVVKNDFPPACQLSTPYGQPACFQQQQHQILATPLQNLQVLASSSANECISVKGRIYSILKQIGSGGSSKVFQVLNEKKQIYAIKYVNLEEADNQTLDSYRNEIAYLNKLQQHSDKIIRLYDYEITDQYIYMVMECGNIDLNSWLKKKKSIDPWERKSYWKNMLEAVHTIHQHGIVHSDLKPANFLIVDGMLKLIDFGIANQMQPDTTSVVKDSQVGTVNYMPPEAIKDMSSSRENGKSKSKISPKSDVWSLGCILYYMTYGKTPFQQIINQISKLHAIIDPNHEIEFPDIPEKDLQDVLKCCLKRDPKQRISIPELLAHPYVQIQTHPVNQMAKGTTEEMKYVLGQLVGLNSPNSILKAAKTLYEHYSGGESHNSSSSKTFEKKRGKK

[5] = molecular target: Protein kinase C beta type (Homo sapiens) (UniProt P05771); assay: Residual activity of PKCbeta1 at 1 uM by microplate scintillation counting
[6] = molecular target: T3, Tyrosine-protein kinase Tec (Homo sapiens) (UniProt P42680); assay: Residual activity of TEC at 1 uM by microplate scintillation counting
T3 sequence (whole entry): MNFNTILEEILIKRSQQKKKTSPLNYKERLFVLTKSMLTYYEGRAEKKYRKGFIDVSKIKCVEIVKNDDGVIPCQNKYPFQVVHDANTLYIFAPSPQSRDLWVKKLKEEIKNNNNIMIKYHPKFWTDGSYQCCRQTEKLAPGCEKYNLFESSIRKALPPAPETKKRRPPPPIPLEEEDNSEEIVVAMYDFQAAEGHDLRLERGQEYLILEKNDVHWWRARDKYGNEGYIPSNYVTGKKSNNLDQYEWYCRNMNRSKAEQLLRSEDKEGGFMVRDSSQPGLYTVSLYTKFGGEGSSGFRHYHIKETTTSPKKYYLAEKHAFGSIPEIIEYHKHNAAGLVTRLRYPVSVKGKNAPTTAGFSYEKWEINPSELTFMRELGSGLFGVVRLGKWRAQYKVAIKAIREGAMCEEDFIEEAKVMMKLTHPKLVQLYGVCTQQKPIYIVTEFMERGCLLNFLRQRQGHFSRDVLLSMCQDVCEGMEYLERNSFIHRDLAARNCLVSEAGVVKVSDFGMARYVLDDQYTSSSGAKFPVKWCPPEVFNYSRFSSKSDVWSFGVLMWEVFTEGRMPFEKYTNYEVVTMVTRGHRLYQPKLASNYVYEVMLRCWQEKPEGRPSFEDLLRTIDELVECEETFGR

Chain of Protein kinase C beta type (Homo sapiens) (P05771 2-671 limits assumed): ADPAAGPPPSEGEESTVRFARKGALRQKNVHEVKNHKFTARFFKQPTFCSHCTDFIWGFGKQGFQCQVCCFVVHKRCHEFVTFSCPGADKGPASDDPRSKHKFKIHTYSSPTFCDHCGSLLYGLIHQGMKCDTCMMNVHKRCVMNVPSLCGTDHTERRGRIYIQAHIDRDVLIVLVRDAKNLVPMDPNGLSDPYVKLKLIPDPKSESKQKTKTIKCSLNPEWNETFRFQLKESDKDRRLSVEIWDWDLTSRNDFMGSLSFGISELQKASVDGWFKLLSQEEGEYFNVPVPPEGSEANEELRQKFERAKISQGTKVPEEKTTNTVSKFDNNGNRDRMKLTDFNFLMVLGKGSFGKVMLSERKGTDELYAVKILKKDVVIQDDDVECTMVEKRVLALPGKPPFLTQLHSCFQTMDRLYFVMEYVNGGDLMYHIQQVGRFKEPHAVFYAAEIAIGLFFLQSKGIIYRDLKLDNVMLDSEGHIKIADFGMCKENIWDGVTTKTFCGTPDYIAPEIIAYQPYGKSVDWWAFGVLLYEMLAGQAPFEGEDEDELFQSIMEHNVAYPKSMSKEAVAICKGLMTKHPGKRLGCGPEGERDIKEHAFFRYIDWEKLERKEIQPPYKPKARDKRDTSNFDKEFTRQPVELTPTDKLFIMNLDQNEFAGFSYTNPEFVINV
Chain of Tyrosine-protein kinase HCK (Homo sapiens) (P08631 2-526 limits assumed): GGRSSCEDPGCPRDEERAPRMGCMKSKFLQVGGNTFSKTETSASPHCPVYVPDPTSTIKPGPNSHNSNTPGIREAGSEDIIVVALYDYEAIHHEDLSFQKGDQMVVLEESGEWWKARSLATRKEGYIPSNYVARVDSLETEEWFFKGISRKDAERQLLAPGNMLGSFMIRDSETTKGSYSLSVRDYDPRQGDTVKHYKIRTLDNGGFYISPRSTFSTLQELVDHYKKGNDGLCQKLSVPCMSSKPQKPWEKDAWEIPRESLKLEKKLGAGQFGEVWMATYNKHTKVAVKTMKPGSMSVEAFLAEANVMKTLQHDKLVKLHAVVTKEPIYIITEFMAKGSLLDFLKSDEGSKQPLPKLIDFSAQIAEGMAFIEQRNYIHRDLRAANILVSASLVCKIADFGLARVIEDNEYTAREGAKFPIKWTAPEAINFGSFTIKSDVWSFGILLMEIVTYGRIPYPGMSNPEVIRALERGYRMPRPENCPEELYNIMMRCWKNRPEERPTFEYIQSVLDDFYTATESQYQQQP
Chain of Mitogen-activated protein kinase 14 (Homo sapiens) (Q16539 whole entry): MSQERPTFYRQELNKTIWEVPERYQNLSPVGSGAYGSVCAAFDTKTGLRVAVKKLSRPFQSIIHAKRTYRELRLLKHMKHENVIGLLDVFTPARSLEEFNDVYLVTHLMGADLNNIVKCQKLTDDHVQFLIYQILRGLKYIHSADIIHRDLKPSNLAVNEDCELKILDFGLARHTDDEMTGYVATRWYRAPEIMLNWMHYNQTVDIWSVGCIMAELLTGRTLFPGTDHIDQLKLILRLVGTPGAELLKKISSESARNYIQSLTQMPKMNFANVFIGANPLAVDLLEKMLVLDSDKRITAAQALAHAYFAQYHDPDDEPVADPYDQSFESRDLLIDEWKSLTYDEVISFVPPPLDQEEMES

Structure (SMILES): COc1cc2c(Oc3ccc(-c4nc5ccccc5s4)cc3F)ncnc2cc1OCCCN1CCN(C)CC1
- residual activity [1]: 148%
- residual activity [2]: 115%
- residual activity [3]: 85%
- residual activity [4]: 105%
- residual activity [5]: 103%
- residual activity [6]: 90%

Structure (SMILES): COc1cc2c(Oc3ccc(-c4nc5ccccc5s4)cc3)ncnc2cc1OCCCN1CCCC1
- residual activity [1]: 143%
- residual activity [2]: 97%
- residual activity [3]: 84%
- residual activity [4]: 85%
- residual activity [5]: 105%
- residual activity [6]: 93%

Structure (SMILES): COc1cc2c(Oc3ccc(-c4nc5ccccc5s4)cc3)ncnc2cc1OCCCN1CCN(C)CC1
- residual activity [1]: 145%
- residual activity [2]: 96%
- residual activity [3]: 96%
- residual activity [4]: 101%
- residual activity [5]: 108%
- residual activity [6]: 96%
